According to US20180116983A1, “COMPOUNDS FOR TREATING DISORDERS ASSOCIATED WITH BK CHANNEL MODULATION” (Canbex Therapeutics Limited, priority 2015, published 2018):
Entries after “also recorded” stand apart in the source; their conditions may differ.

Columns and labels:
rat mesenteric arteries = assay: Vasodilation in rat mesenteric arteries (wire myograph)
Protocol: Rats were stunned by a blow to the back of their neck and killed by cervical dislocation in compliance with schedule 1 of the UK Animals (Scientific Procedures) Act 1986.
Segments (2 mm in length) were mounted in a Mulvany-Halpern type wire myograph (Model 610M; Danish Myo Technology, Aarhus, Denmark) and maintained at 37° C. in gassed (95% O2/5% CO2) Krebs-Henseleit solution of the following composition (mM): NaCl 118, KCl 4.7, MgSO4 1.2, KH2PO4 1.2, NaHCO, 25, CaCl2 2, D-glucose 10 as previously described (Ho and Randall, 2007). Arteries were equilibrated and set to a basal tension of 2-2.5 mN. The integrity of the endothelium was assessed by precontracting the vessel with 10 μM methoxamine (an α1-adrenoceptor agonist), followed by relaxation with 10 μM carbachol (a muscarinic acetylcholine receptor agonist); vessels showing relaxations of greater than 90% were designated as endothelium-intact. When endothelium was not required, it was removed by rubbing the intima with a human hair; carbachol-induced relaxation of less than 10% indicated successful removal. After the test for endothelial integrity, arteries were left for 30 min and then precontracted with 10 μM methoxamine (or 60 mM KCl), this was followed by construction of a cumulative concentration-relaxation curve to VSN16R (10 nM-1 μM). Most experiments were performed in matched vessels; effects of putative modulators or endothelial removal were compared with the control responses obtained in separate vessels of the same rat. Potential modulators were added to the myograph bath 30 min before measurement, and kept present during, construction of the concentration-relaxation curve.

[1] = Intraocular pressure (IOP) after topical application; type: in vivo, rats; settings: for IOP, mean: BL 11.18
Protocol: The effect of VSN16R on IOP was measured using the techniques described in the literature (Guo L. et aI, Investigative Ophthalmology & Visual Science, January 2005, Vol 46, No. 1 p 175-182; Guo L. et al, Investigative Ophthalmology & Visual Science, February 2006, Vol 47, No. 2 p 626-633; Cordeiro F. et al, PNAS, Aug. 14, 2007; Vol 104; No. 33, p 13444-13449; Cordeiro F. et al, PNAS, Sep. 7, 2004; Vol 101; No. 36, p 13352-13356).

[2] = test system: C57BL/6.Fmr1 knockout mice; assay: Open field test in Fmr1 knockout mice; type: in vivo, mouse; settings: 2 mg/kg i.v.
Protocol: (§1) Animals: C57BL/6.J. Fmr1-K02 mice, which have a deletion of the promoter and exonl of the Fmr1 gene (Mientjes et al., 2006) and C57BL/6J wild type (WT) were originated from the Jackson laboratory (Ann Harbor, USA). Mice were housed in groups (4-6 per cage) and all animals were provided with ad libitum food and water unless otherwise stated. Mice were maintained on a 12 h light/12 h dark cycle (lights off 19:00 to 7:00) in a temperature-controlled environment (21±1° C.). Testing was conducted in the light phase. Mice were housed in commercial cages and experiments were performed in line with the United Kingdom Animals (Scientific procedures) Act 1986. […]
(§2) Drug Treatment: VSN16R was dissolved in saline for injection intravenously via a tail vein using 2 mg/kg a 30 g needle in a volume of 0.1 ml. […] The eye condition (runny eyes or porphyria, ptosis), gait appearance, tremor, tail tone, reactivity to handling was assessed to detect adverse behavioural effect.
Open field: The open field apparatus was used to test multiple processes including anxiety/hyperactivity and habituation to a novel environment, in which decreased exploration as a function of repeated exposure to the same environment is taken as an index of memory. […] The number of squares entered (whole body) (locomotor activity) and rears (both front paws off the ground, but not as part of grooming) were counted. […]

[3] = test system: C57BL/6.Fmr1 knockout mice; assay: Marble burying in Fmr1 knockout mice; type: in vivo, mouse; settings: 2 mg/kg i.v., 30 min
Protocol: as §1, §2
Marble burying: Mice will dig as part of their typical behaviours and this was detected using transparent plastic cages were filled with a 10 cm deep layer of sawdust on top of which 10 glass marbles were placed in two rows. Each animal was left undisturbed in such a cage for 30 min, after which the number of marbles that were buried to at least ⅔ of their depth was recorded. […]

[4] = Tolerability on repeated dosing; type: in vivo, mouse
mesenteric arteries = settings: cited from earlier work

In the case of `C[C@H](CO)NC(=O)c1cccc(/C=C\CCCC(=O)N(C)C)c1` [VSN16R], the “relaxation of rat mesenteric arteries in the presence of charybdotoxin” value (rat mesenteric arteries; 50 nM charybdotoxin) is reported as “inhibited by antagonists of BKCa channels”, the “relaxation of rat mesenteric arteries in the presence of iberotoxin” value (rat mesenteric arteries; 50 nM iberotoxin) is reported as “blocked by iberotoxin; also recorded: can be inhibited by the specific BK channel blocker iberiotoxin; also recorded: inhibited by antagonists of BKCa channels” and the “activation of calcium activated potassium channels in arterial vasodilation assay” value (rat mesenteric arteries; FIG. 9, reduction of endothelial tone) is reported as “activates calcium activated potassium channels”. The “relaxation of rat mesenteric arteries in the presence of apamin alone” value (rat mesenteric arteries; apamin alone) was “non-significant blockade”, the “relaxation of rat mesenteric arteries in the presence of apamin and charybdotoxin” value (rat mesenteric arteries; combination of apamin and charybdotoxin) was “blocked” and the “relaxation of rat mesenteric arteries in the presence of 60 mM KCl” value (rat mesenteric arteries; extracellular 60 mM KCl) was “inhibiting VSN16R activity; also recorded: produced no relaxation”. The “relaxation of rat mesenteric arteries” value (rat mesenteric arteries; pre-contracted with methoxamine, endothelium intact vs denuded) was “relaxed; also recorded: can induce vasorelaxation in an endothelium-dependent (P<0.001) manner”, the “IOP, mean” value ([1]; 0.5 h after VSN16R, p<0.05) was 9.82 mmHg and the “IOP, mean” value ([1]; 1 h after VSN16R, not significant) was 10.79 mmHg. For the same compound, the “effect on intraocular pressure” value ([1]; topical to the eye, normal rats) was “reduces intraocular pressure”, the “open field activity (hyperactivity, memory)” value ([2]; Fmr1 knockout mice, baseline, 10 min, 24 h, 2 mg/kg) was “inhibits the hyperactivity and memory deficient; also recorded: movement behaviours were comparable to that observed in wildtype mice; also recorded: normalise the memory and exploratory behaviours to the level of wildtype mice” and the open field activity ([2]; wildtype mice) was “exhibit comparable movement behaviour to vehicle-treated wildtype mice”. The “digging behaviour (marbles buried)” value [3] was “inhibits the development of Exaggerated Digging Behaviours; also recorded: significantly (P<0.001) limited the exaggerated behaviour”, the tolerability ([4]; 2 mg/kg i.v. over 2 weeks) was “well tolerated and no instances of toxicity were observed; also recorded: well tolerated” and the tolerable dose ([4]; daily, p.o.) was no less than 1000 mg/kg. The “action on smooth muscle carrying the β1 subunit” value (mesenteric arteries) was “does not act on smooth muscle”.
